This passage reports binding and Kd results from paper PMC7006622 (2019).

Each structure is given as a SMILES string.

Test [1] has as its system TWJ molecular switch for ATP (B3/G12 split aptamer, with FP1 and CP1) (DNA, aptamer) TGGGATTGGAAGGAGGCGTCCGTACTCTATGAGCCTCTG/TATGAGGGGGTCCACCGTGT/AAACACGGATCCCATA
The test can be described thus: single-molecule TIRF, transient binding of fluorescent probe. The settings on record: 1× PBS; qualitative; oxygen scavenger system; surface-immobilised DNA.

The test system of test [2] is TWJ molecular switch for 17β-estradiol (B5/G14 split aptamer, with FP1 and CP1) (DNA, aptamer) TAGGGTGCGGCTCTGCGCATTCAATTGCTGCGCGCTGAAGCGCGGAAGCCCGTACTCTATGAGCCTCTG/GCTTCCAGCTTATTGAATTACACGCAGAGGGTACCGTGT/AAACACGGATCCCATA
In words: single-molecule TIRF, fluorescent probe binding kinetics. Conditions: 1× PBS; apparent; read from calibration curve of probe kon,F and koff,F against Kd; oxygen scavenger system; surface-immobilised DNA.

For `Nc1ncnc2c1ncn2[C@@H]1O[C@H](COP(=O)(O)OP(=O)(O)OP(=O)(O)O)[C@@H](O)[C@H]1O`, in test [1], the binding entry was “yes”.

In the case of `C[C@]12CC[C@@H]3c4ccc(O)cc4CC[C@H]3[C@@H]1CC[C@@H]2O`, the Kd in test [2] worked out at 18 nM.
